In ChEMBL document CHEMBL6092217 (Eur J Med Chem, 2024):

Tests used:
MDA-MB-231 = assay: cells; settings: Homo sapiens, MDA-MB-231, 72 h
Description: Antiproliferative activity against human MDA-MB-231 cells assessed as cell viability incubated for 72 hrs by MTT assay

HT-29 = assay: Antiproliferative activity against human HT-29 cells assessed as cell viability incubated for 72 hrs by MTT assay; type: functional, cell-based; settings: HT-29, 72 h
MCF7 = assay: Antiproliferative activity against human MCF7 cells assessed as cell viability incubated for 72 hrs by MTT assay; type: functional, cell-based; settings: MCF7, 72 h
RKO = assay: Antiproliferative activity against human RKO cells assessed as cell viability incubated for 72 hrs by MTT assay; type: functional, cell-based
PC-3 = assay: Antiproliferative activity against human PC-3 cells assessed as cell viability incubated for 72 hrs by MTT assay; type: functional, cell-based; settings: PC-3, 72 h
HepG2 = assay: Antiproliferative activity against human HepG2 cells assessed as cell viability incubated for 72 hrs by MTT assay; type: functional, cell-based; settings: HepG2, 72 h
Tubulin = assay: Inhibition of tubulin polymerization (unknown origin) in presence of GTP by fluorescence plate reader analysis; type: protein-complex assay, Homo sapiens
[1] = Binding affinity to porcine brain tubulin assessed as dissociation constant measured after 20 mins by fluorescence based analysis; design: species or system Sus scrofa

SMILES	IC50 (MDA-MB-231) [nM]	IC50 (HT-29) [nM]	IC50 (MCF7) [nM]	IC50 (RKO) [nM]	IC50 (PC-3) [nM]	IC50 (HepG2) [nM]	IC50 (Tubulin) [nM]	Kd [1] [nM]
COc1ccc(N(C)c2nc(/C=C/c3ccccc3)nc3ccccc23)cc1	1360	250	230	250	340	1190	–	–
COc1ccc(N(C)c2nc(/C=C/c3cccc(F)c3)nc3ccc(F)cc23)cc1	2520	460	340	620	360	730	–	–
COc1ccc(N(C)c2nc(/C=C/c3ccccc3OC)nc3ccccc23)cc1	> 10000	8160	> 10000	> 10000	740	> 10000	–	–
COc1cccc(OC)c1N(C)c1nc(/C=C/c2ccccc2)nc2ccccc12	> 10000	> 10000	> 10000	> 10000	> 10000	> 10000	–	–
COc1ccc(/C=C/c2nc(N(C)c3ccc(OC)cc3)c3ccccc3n2)cc1	1800	890	3660	940	2750	4480	–	–
CN(c1ccccc1)c1nc(/C=C/c2ccccc2)nc2ccccc12	> 10000	> 10000	> 10000	> 10000	> 10000	> 10000	–	–
COc1ccc(N(C)c2nc(/C=C/c3ccc(OC)c(OC)c3OC)nc3ccccc23)cc1	600	170	410	220	490	530	–	–
CN(c1ccc2c(c1)OCCO2)c1nc(/C=C/c2ccccc2)nc2ccccc12	2060	670	320	410	1460	3440	–	–
COc1ccc(N(C)c2nc(/C=C/c3ccc(C)cc3)nc3ccccc23)cc1	2560	460	3110	1710	460	3010	–	–
COc1ccc(N(C)c2nc(/C=C/c3cccc(OC)c3)nc3ccc(F)cc23)cc1	1060	280	800	240	650	360	–	–
COc1ccc(N(C)c2nc(/C=C/c3cccc(F)c3)nc3ccccc23)cc1	1250	160	260	170	90	240	–	–
COc1ccc(N(C)c2nc(/C=C/c3cccc(OC)c3OC)nc3ccccc23)cc1	5060	880	4090	1340	1100	4820	–	–
COc1ccc(N(C)c2nc(/C=C/c3cccc(Cl)c3Cl)nc3ccccc23)cc1	> 10000	1420	> 10000	5750	2990	> 10000	–	–
COc1ccc(N(C)c2nc(/C=C/c3ccc(OC)cc3OC)nc3ccccc23)cc1	240	47	140	120	110	220	> 10000	43300
CN(c1ccc(C(F)(F)F)cc1)c1nc(/C=C/c2ccccc2)nc2ccccc12	> 10000	> 10000	> 10000	> 10000	> 10000	> 10000	–	–
O=c1[nH]cc(F)c(=O)[nH]1 [FLUOROURACIL]	> 10000	> 10000	> 10000	> 10000	> 10000	> 10000	–	–
CN(c1ccc(F)cc1)c1nc(/C=C/c2ccccc2)nc2ccccc12	2850	530	1080	540	1110	910	–	–
COc1ccc(N(C)c2nc(/C=C/c3ccc(Cl)cc3Cl)nc3ccccc23)cc1	> 10000	4750	> 10000	1760	1450	> 10000	–	–
COc1ccc(N(C)c2nc(/C=C/c3cccc(Br)c3)nc3ccccc23)cc1	9860	> 10000	> 10000	> 10000	7380	> 10000	–	–

SMILES	IC50 (MDA-MB-231) [nM]	IC50 (HT-29) [nM]	IC50 (MCF7) [nM]	IC50 (RKO) [nM]	IC50 (PC-3) [nM]	IC50 (HepG2) [nM]	IC50 (Tubulin) [nM]	Kd [1] [nM]
COc1ccc(N(C)c2nc(/C=C/c3ccc(OC)c(OC)c3)nc3ccccc23)cc1	7240	2010	3500	2730	1460	2740	–	–
COc1ccc(N(C)c2nc(/C=C/c3cccc(Cl)c3)nc3ccccc23)cc1	4170	710	1060	1370	2180	1730	–	–
COc1ccc(OC)c(N(C)c2nc(/C=C/c3ccccc3)nc3ccccc23)c1	> 10000	> 10000	> 10000	> 10000	> 10000	> 10000	–	–
COc1ccc(N(C)c2nc(/C=C/c3cccc(F)c3)nc3cccc(F)c23)cc1	430	210	390	220	400	490	–	–
COc1ccc(N(C)c2nc(C)nc3ccccc23)cc1 [VERUBULIN]	23	7	14	9	10	13	–	–
COc1ccc(N(C)c2nc(/C=C/c3ccccc3)nc3ccccc23)cc1OC	7030	540	2050	630	2850	2840	–	–
COc1cc(OC)cc(N(C)c2nc(/C=C/c3ccccc3)nc3ccccc23)c1	> 10000	> 10000	> 10000	> 10000	> 10000	> 10000	–	–
CN(c1ccc(OC(F)(F)F)cc1)c1nc(/C=C/c2ccccc2)nc2ccccc12	> 10000	> 10000	> 10000	> 10000	> 10000	> 10000	–	–
COc1ccc(N(C)c2nc(/C=C/c3cccc(F)c3)nc3cccnc23)cc1	2880	200	1180	510	330	680	–	–
CN(c1ccc2occc2c1)c1nc(/C=C/c2ccccc2)nc2ccccc12	6570	2840	2560	1590	7410	4000	–	–
COc1ccc(N(C)c2nc(/C=C/c3ccc([N+](=O)[O-])cc3)nc3ccccc23)cc1	9480	3240	5610	4270	2850	7010	–	–
COc1ccc(N(C)c2nc(/C=C/c3cccc(OC)c3)nc3cccc(F)c23)cc1	800	240	460	150	360	410	–	–
COc1ccc(N(C)c2nc(/C=C/c3cccc([N+](=O)[O-])c3)nc3ccccc23)cc1	810	300	1470	490	410	540	–	–
COc1ccc(N(C)c2nc(/C=C/c3ccccc3)nc3ccccc23)c(OC)c1	5730	750	1900	650	2750	8220	–	–
COc1ccc(N(C)c2nc(/C=C/c3ccc(Cl)cc3)nc3ccccc23)cc1	830	310	610	460	620	940	–	–
CN(c1ccc2c(c1)OCO2)c1nc(/C=C/c2ccccc2)nc2ccccc12	3680	2790	1640	720	1070	1140	–	–
COc1cc(N(C)c2nc(/C=C/c3ccccc3)nc3ccccc23)cc(OC)c1OC	> 10000	> 10000	> 10000	> 10000	> 10000	> 10000	–	–
COc1ccc(N(C)c2nc(/C=C/c3cc(OC)c(OC)c(OC)c3)nc3ccccc23)cc1	> 10000	> 10000	> 10000	> 10000	8340	> 10000	–	–
